Laboratory results: patent US20110262556A1, “SILVER/WATER, SILVER GELS AND SILVER-BASED COMPOSITIONS; AND METHODS FOR MAKING AND USING THE SAME” (AMERICAN SILVER, LLC, priority 2005, published 2011)
Converted amounts (≈) assume the structure as drawn. Where two headings read alike, the source gives them in different places.

Experiments:
[1] = system: B. subtilis; test: Zone of inhibition, agar well; conditions: antibiotic amount (1-200 mcg)
[2] = system: MRSA 2; test: Zone of inhibition, agar well; conditions: antibiotic amount (1-200 mcg)
[3] = system: S. aureus ATCC 6538 P; test: Zone of inhibition, agar well; conditions: antibiotic amount (1-200 mcg)
[4] = system: MRSA 1; test: Zone of inhibition, agar well; conditions: antibiotic amount (1-200 mcg)
[5] = system: K. oxytoca; test: MIC/MBC broth microdilution; assay type: cell-based; conditions: K. oxytoca
[6] = system: P. aeruginosa; test: MIC/MBC broth microdilution; assay type: cell-based, Pseudomonas aeruginosa
[7] = system: S arizona; test: MIC/MBC broth microdilution; assay type: cell-based, Salmonella arizona
[8] = system: S. pneumoniae; test: MIC/MBC broth microdilution; assay type: cell-based
[9] = system: E. aerogenes; test: MIC/MBC broth microdilution; assay type: cell-based, Enterobacter aerogenes
[10] = system: S. mutans; test: MIC/MBC broth microdilution; assay type: cell-based, Streptococcus mutans
[11] = system: S. boydii; test: MIC/MBC broth microdilution; assay type: cell-based, Shigella boydii; conditions: S. boydii
[12] = system: S gordonii; test: MIC/MBC broth microdilution; assay type: cell-based, Streptococcus gordonii
[13] = system: S. faecalis; test: MIC/MBC broth microdilution; assay type: cell-based, Streptococcus faecalis
[14] = system: S. pyogenes; test: MIC/MBC broth microdilution; assay type: cell-based, Streptococcus pyogenes
[15] = system: E. cloacae; test: MIC/MBC broth microdilution; assay type: cell-based
[16] = system: S. aureus; test: MIC/MBC broth microdilution; assay type: cell-based, Staphylococcus aureus
[17] = system: K. pneumoniae; test: MIC/MBC broth microdilution; assay type: cell-based, Klebsiella pneumoniae
[18] = system: E. coli; test: MIC/MBC broth microdilution; assay type: cell-based, Escherichia coli
[19] = system: S. typhimurium; test: MIC/MBC broth microdilution; assay type: cell-based; conditions: S. typhimurium
[20] = system: E. coil; test: Zone of inhibition, agar well; conditions: E.coli; antibiotic amount (5-200 mcg)
[21] = system: Ps. Aeruginosa; test: Zone of inhibition, agar well; conditions: antibiotic amount (5-200 mcg)
[22] = system: S.typhi; test: Zone of inhibition, agar well; conditions: antibiotic amount (5-200 mcg)
[23] = system: MRSA clinical isolate (pus); test: Antibiotic sensitivity, Kirby Bauer
[24] = system: Escherichia coli MDR clinical isolate (stool); test: Antibiotic sensitivity, Kirby Bauer
[25] = system: Pseudomonas aeruginosa MDR clinical isolate (sputum); test: Antibiotic sensitivity, Kirby Bauer
[26] = Pseudomonas aeruginosa, read-out: MBC
[27] = Pseudomonas aeruginosa, read-out: MIC
[28] = Streptococcus pneumoniae, read-out: MBC
[29] = Streptococcus pneumoniae, read-out: MIC
[30] = Streptococcus mutans, read-out: MBC
[31] = Streptococcus mutans, read-out: MIC
[32] = Streptococcus gordonii, read-out: MBC
[33] = Streptococcus gordonii, read-out: MIC
[34] = Enterococcus faecalis, read-out: MBC
[35] = Enterococcus faecalis, read-out: MIC
[36] = Streptococcus pyogenes, read-out: MBC
[37] = Streptococcus pyogenes, read-out: MIC
[38] = Enterobacter cloacae, read-out: MIC
[39] = Staphylococcus aureus, read-out: MBC
[40] = Staphylococcus aureus, read-out: MIC
[41] = Klebsiella pneumoniae, read-out: MIC
[42] = Escherichia coli, read-out: MBC
[43] = Escherichia coli, read-out: MIC
[44] = Salmonella enterica, read-out: MBC
[45] = Salmonella enterica, read-out: MIC

## CC1=C(C(=O)O)N2C(=O)[C@@H](NC(=O)[C@H](N)c3ccccc3)[C@H]2SC1 [Cephalexin]
[1]
  zone of inhibition, antibiotics: Clear
[2]
  zone of inhibition, antibiotics: 0.8 mm
[3]
  zone of inhibition, antibiotics: Clear
[4]
  zone of inhibition, antibiotics: 1.0 mm

## CC1(C)S[C@@H]2[C@H](NC(=O)Cc3ccccc3)C(=O)N2[C@H]1C(=O)O [Penicillin G]
[5]
  MIC: >5.0 ppm
[6]
  MBC: > 5.0 ppm
  MIC: 0.13 ppm
[7]
  MIC: >5.0 ppm
[8]
  MBC: 0.019/0.019 ppm
  MIC: 0.019/0.019 ppm
[9]; E. aerogenes
  MIC: >5.0 ppm
[10]
  MBC: > 5 ppm
  MIC: 0.521 ppm
[11]
  MIC: >5.0 ppm
[12]; S gordonii
  MBC: 0.039 ppm
  MIC: 0.009 ppm
[13]
  MBC: 5.0/>5.0 ppm
  MIC: 5.0/>5.0 ppm
[14]
  MIC: >5.0 ppm
[15]
  MIC: >5.0 ppm
[16]
  MBC: > 5.0 ppm
  MIC: 2.5 ppm
[17]
  MIC: >5.0 ppm
[18]
  MIC: >5.0 ppm
[19]
  MIC: >5.0 ppm

## CC[C@H]1OC(=O)[C@H](C)[C@@H](O[C@H]2C[C@@](C)(OC)[C@@H](O)[C@H](C)O2)[C@H](C)[C@@H](O[C@@H]2O[C@H](C)C[C@H](N(C)C)[C@H]2O)[C@](C)(O)C[C@@H](C)/C(=N\OCOCCOC)[C@H](C)[C@@H](O)[C@]1(C)O [Roxythromycin]
[1]
  zone of inhibition, antibiotics: 20 mm
[2]
  zone of inhibition, antibiotics: 12 mm
[3]
  zone of inhibition, antibiotics: Clear
[4]
  zone of inhibition, antibiotics: 1.0 mm

## CCN1CCN(C(=O)N[C@@H](C(=O)N[C@@H]2C(=O)N3C(C(=O)O)=C(CSc4nnnn4C)CS[C@H]23)c2ccc(O)cc2)C(=O)C1=O [Cefaperazon]
[5]
  MBC: > 5.0 ppm
  MIC: 1.25 ppm
[6]
  MBC: 5.0 ppm
  MIC: 2.5 ppm
[7]
  MBC: > 5.0 ppm
  MIC: 0.833 ppm
[8]
  MBC: 0.313/0.313 ppm
  MIC: 0.313/0.313 ppm
[9]; E. aerogenes
  MBC: > 5.0 ppm
  MIC: 2.92 ppm
[10]
  MBC: > 5 ppm
  MIC: 1.25 ppm
[11]
  MBC: 0.625/0.625 ppm
  MIC: 0.625/0.625 ppm
[12]; S gordonii
  MBC: 1.25/1.25 ppm
  MIC: 1.25/1.25 ppm
[13]
  MIC: >5.0 ppm
[14]
  MBC: 1.25 ppm
  MIC: 0.313 ppm
[16]
  MBC: 5.0/5.0 ppm
  MIC: 5.0/5.0 ppm
[17]
  MIC: >5.0 ppm
[18]
  MBC: > 5.0 ppm
  MIC: 0.625 ppm
[19]
  MBC: 2.5 ppm
  MIC: 1.25 ppm

## CO/N=C(\C(=O)N[C@@H]1C(=O)N2C(C(=O)O)=CCS[C@H]12)c1csc(N)n1 [Ceftizoxime]
[20]
  zone of inhibition, antibiotics: 18 mm
[21]
  zone of inhibition, antibiotics: No inhibition
[22]
  zone of inhibition, antibiotics: 15 mm

## CC(C)(O/N=C(\C(=O)N[C@@H]1C(=O)N2C(C(=O)[O-])=C(C[n+]3ccccc3)CS[C@H]12)c1csc(N)n1)C(=O)O [ceftazidime]
[23]
  resistance of isolate: resistant
[24]; E.c, Kirby-Bauer antibiotic disc
  Zone size (mm): 10 mm
[24]; gram-negative isolate E. coli
  resistance of isolate: resistance
[25]; Ps., Kirby-Bauer antibiotic disc
  Zone size (mm): 16 mm
[25]; gram-negative isolate Pseudomonas
  resistance of isolate: resistance

## CC[C@H]1OC(=O)[C@H](C)[C@@H](O[C@H]2C[C@@](C)(OC)[C@@H](O)[C@H](C)O2)[C@H](C)[C@@H](O[C@@H]2O[C@H](C)C[C@H](N(C)C)[C@H]2O)[C@](C)(O)C[C@@H](C)C(=O)[C@H](C)[C@@H](O)[C@]1(C)O [Erythromycin]
[5]; Klebsiella oxytoca, read-out: MIC
  MIC: > 5 mg/L
[6]; [26]
  MBC: > 5 mg/L
[6]; [27]
  MIC: 2.5 mg/L (≈ 3.41 µM)
[7]; Salmonella, read-out: MBC
  MBC: > 5 mg/L
[7]; Salmonella, read-out: MIC
  MIC: 4.17 mg/L (≈ 5.68 µM)
[8]; [28]
  MBC: 0.004 mg/L (≈ 0.00545 µM)
[8]; [29]
  MIC: 0.002 mg/L (≈ 0.00273 µM)
[9]; Klebsiella aerogenes, E. aerogenes, read-out: MIC
  MIC: > 5 mg/L
[10]; [30]
  MBC: 0.019 mg/L (≈ 0.0259 µM)
[10]; [31]
  MIC: 0.009 mg/L (≈ 0.0123 µM)
[11]; Shigella boydii, read-out: MBC
  MBC: > 5 mg/L
[11]; Shigella boydii, read-out: MIC
  MIC: 5 mg/L (≈ 6.81 µM)
[12]; [32]
  MBC: 0.019 mg/L (≈ 0.0259 µM)
[12]; [33]
  MIC: 0.005 mg/L (≈ 0.00681 µM)
[13]; [34]
  MBC: 1.25 mg/L (≈ 1.7 µM)
[13]; [35]
  MIC: 0.009 mg/L (≈ 0.0123 µM)
[14]; [36]
  MBC: 0.019 mg/L (≈ 0.0259 µM)
[14]; [37]
  MIC: 0.003 mg/L (≈ 0.00409 µM)
[15]; [38]
  MIC: > 5 mg/L
[16]; [39]
  MBC: > 5 mg/L
[16]; [40]
  MIC: 0.039 mg/L (≈ 0.0531 µM)
[17]; [41]
  MIC: > 5 mg/L
[18]; [42]
  MBC: > 5 mg/L
[18]; [43]
  MIC: 5 mg/L (≈ 6.81 µM)
[19]; [44]
  MBC: > 5 mg/L
[19]; [45]
  MIC: 5 mg/L (≈ 6.81 µM)

## CC1COc2c(N3CCN(C)CC3)c(F)cc3c(=O)c(C(=O)O)cn1c23 (centres unmarked) [Ofloxacin]
[6]; [26]
  MBC: 0.313 mg/L (≈ 0.866 µM)
[6]; [27]
  MIC: 0.156 mg/L (≈ 0.432 µM)
[7]; Salmonella, read-out: MBC
  MBC: 0.078 mg/L (≈ 0.216 µM)
[7]; Salmonella, read-out: MIC
  MIC: 0.078 mg/L (≈ 0.216 µM)
[8]; [28]
  MBC: 2.5 mg/L (≈ 6.92 µM)
[8]; [29]
  MIC: 2.5 mg/L (≈ 6.92 µM)
[9]; Klebsiella aerogenes
  MBC: 0.156 mg/L (≈ 0.432 µM)
  MIC: 0.078 mg/L (≈ 0.216 µM)
[10]; [30]
  MBC: > 5 mg/L
[10]; [31]
  MIC: 2.5 mg/L (≈ 6.92 µM)
[2]
  zone of inhibition, antibiotics: 16 mm
[11]; Shigella boydii, read-out: MBC
  MBC: 0.156 mg/L (≈ 0.432 µM)
[11]; Shigella boydii, read-out: MIC
  MIC: 0.078 mg/L (≈ 0.216 µM)
[12]; [32]
  MBC: 5 mg/L (≈ 13.8 µM)
[12]; [33]
  MIC: 2.5 mg/L (≈ 6.92 µM)
[13]; [34]
  MBC: 5 mg/L (≈ 13.8 µM)
[13]; [35]
  MIC: 1.25 mg/L (≈ 3.46 µM)
[14]; [36]
  MBC: 2.5 mg/L (≈ 6.92 µM)
[14]; [37]
  MIC: 1.25 mg/L (≈ 3.46 µM)
[15]; Enterobacter cloacae
  MBC: 0.156 mg/L (≈ 0.432 µM)
[15]; [38]
  MIC: 0.156 mg/L (≈ 0.432 µM)
[4]
  zone of inhibition, antibiotics: 15 mm
[16]; [39]
  MBC: 0.625 mg/L (≈ 1.73 µM)
[16]; [40]
  MIC: 0.417 mg/L (≈ 1.15 µM)
[17]; Klebsiella pneumoniae
  MBC: 0.625 mg/L (≈ 1.73 µM)
[17]; [41]
  MIC: 0.417 mg/L (≈ 1.15 µM)
[18]; [42]
  MBC: 0.156 mg/L (≈ 0.432 µM)
[18]; [43]
  MIC: 0.104 mg/L (≈ 0.288 µM)
[19]; [44]
  MBC: 0.156 mg/L (≈ 0.432 µM)
[19]; [45]
  MIC: 0.078 mg/L (≈ 0.216 µM)

## O=C(N[C@H](CO)[C@H](O)c1ccc([N+](=O)[O-])cc1)C(Cl)Cl [Chloramphenicol]
[20]
  zone of inhibition, antibiotics: 22 mm
[21]
  zone of inhibition, antibiotics: No inhibition
[22]
  zone of inhibition, antibiotics: 23 mm
